Like-named read-outs stand apart in the source and are kept apart here.
Legend:
[1] = test system: MiaPaca-2 (expressing KRAS G12C mutant); experiment: Proliferation Assay (Cell Viability Assay); assay type: cell-based; settings: Homo sapiens, MIA PaCa-2
Procedure, shortened: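 After 2–4 days' exposure at 37 °C, 5% CO2 to a single 10 μM final concentration or a dilution series (IC50), percent proliferation inhibition was derived from CellTiter 96 Aqueous One viability readings. The medium contained 0.3% DMSO and 10% FBS. KRAS G12C MiaPaca-2 cells were plated at 2000–5000/well the day before.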

Rac-1 = molecular target: T1, Rac-1 (Homo sapiens, UniProt P63000); experiment: Ras GTP Binding Domain Inhibition Assay (Ras Superfamily Assay); settings: read-out: Rac-1: % inh.
T1 construct: made in house
Procedure, shortened: (§1)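 His-tagged GTPases immobilised on nickel-coated plates, pre-incubated with compound (20 μM single point, or serial dilution for IC50) 3 h at room temperature, with or without 10-30 μg/mL Sos (residues 556-1049) in the final hour. Bound Cy3- or Cy5-GTP (100 nM, 45 min) measured by fluorescence after washing.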

KRas wild type = experiment: as above; settings: 20 μM compound; for KRas wild type + SOS: % inh.: with SOS; for KRas wild type: % inh.: without SOS
Procedure, shortened: as §1

KRas G12D mutant = experiment: as above; settings: 20 μM compound; for KRas G12D mutant + SOS: % inh.: with SOS; for KRas G12D mutant: % inh.: without SOS
Procedure, shortened: as §1

[2] = read-out: Proliferation in MiaPaca-2: IC50

SMILES	IC50 [1, 2] [nM]	inhibition at 20 µM (Rac-1) [%]	KRas wild type + SOS: % inh. (KRas wild type)	KRas wild type: % inh. (KRas wild type)	KRas G12D mutant + SOS: % inh. (KRas G12D mutant)	KRas G12D mutant: % inh. (KRas G12D mutant)	IC50 ([1]; MiaPaca2, pancreatic, KRas G12C, read-out: Proliferation assay IC50) [nM]	IC50 ([1]; Proliferation assay, MiaPaca-2, read-out: MiaPaca-2 IC50 (nM) Pancreatic) [nM]
CO[C@@H]1CC[C@@H](Nc2nc(-c3nccn3C)nn3cc(-c4ccn(C)n4)c(C)c23)C1 (racemic) [Compound 132, rac N-((1R,3R)-3-Methoxycyclopentyl)-5-methyl-2-(1-methyl-1H-imidazol-2-yl)-6-(1-methyl-1H-pyrazol-3-yl)pyrrolo[2,1-f][1,2,4]triazin-4-amine]	> 1000	1 to 25	0 (0 = 0% inhibition)	B (B = 26-49% inhibition)	A (A = 1-25% inhibition)	B (B = 26-49% inhibition)		
CCc1nc(Nc2nc(-c3nccn3C)nn3cc(-c4ccn(C)n4)c(C)c23)nn1C [Compound 108, N-(5-Ethyl-1-methyl-1H-1,2,4-triazol-3-yl)-5-methyl-2-(1-methyl-1H-imidazol-2-yl)-6-(1-methyl-1H-pyrazol-3-yl)pyrrolo[2,1-f][1,2,4]triazin-4-amine]	510 to 1000	76 to 100	C (C = 50-75% inhibition)	D (D = 76-100% inhibition)	C (C = 50-75% inhibition)	D (D = 76-100% inhibition)		
Cc1c(-c2ccn(C)n2)cn2nc(-c3nccn3C)nc(Nc3ccccn3)c12 [Compound 118, 5-Methyl-2-(1-methyl-1H-imidazol-2-yl)-6-(1-methyl-1H-pyrazol-3-yl)-N-(pyridin-2-yl)pyrrolo[2,1-f][1,2,4]triazin-4-amine]	< 150	76 to 100	D (D = 76-100% inhibition)	D (D = 76-100% inhibition)	D (D = 76-100% inhibition)	D (D = 76-100% inhibition)		
COc1cncnc1Nc1nc(-c2nccn2C)nn2cc(-c3ccn(C)n3)c(C)c12 [Compound 107, N-(5-Methoxypyrimidin-4-yl)-5-methyl-2-(1-methyl-1H-imidazol-2-yl)-6-(1-methyl-1H-pyrazol-3-yl)pyrrolo[2,1-f][1,2,4]triazin-4-amine]	< 150	76 to 100	D (D = 76-100% inhibition)	C (C = 50-75% inhibition)	C (C = 50-75% inhibition)	C (C = 50-75% inhibition)		
CO[C@H]1C[C@H](Nc2nc(-c3nccn3C)nn3cc(-c4cccnc4)c(C)c23)C1 [Compound 151, N-((1r,3r)-3-Methoxycyclobutyl)-5-methyl-2-(1-methyl-1H-imidazol-2-yl)-6-(pyridin-3-yl)pyrrolo[2,1-f][1,2,4]triazin-4-amine]	> 1000	50 to 75	C (C = 50-75% inhibition)	C (C = 50-75% inhibition)	D (D = 76-100% inhibition)	B (B = 26-49% inhibition)		
COc1cc(Nc2nc(-c3nccn3C)nn3cc(-c4ccn(C(C)C)n4)c(C)c23)ncn1 [Compound 6, 6-(1-Isopropyl-1H-pyrazol-3-yl)-N-(6-methoxypyrimidin-4-yl)-5-methyl-2-(1-methyl-1H-imidazol-2-yl)pyrrolo[2,1-f][1,2,4]triazin-4-amine]	150 to 500	50 to 75	C (C = 50-75% inhibition)	D (D = 76-100% inhibition)	C (C = 50-75% inhibition)	D (D = 76-100% inhibition)	< 150	10 to 50
Cc1c(-c2ccn(C)n2)cn2nc(-c3nccn3C)nc(Nc3nccn3C)c12 [Compound 106, 5-Methyl-N,2-bis(1-methyl-1H-imidazol-2-yl)-6-(1-methyl-1H-pyrazol-3-yl)pyrrolo[2,1-f][1,2,4]triazin-4-amine]	< 150	26 to 49	0 (0 = 0% inhibition)	A (A = 1-25% inhibition)	A (A = 1-25% inhibition)	B (B = 26-49% inhibition)		
Cc1c(-c2ccn(C)n2)cn2nc(-c3nccn3C)nc(Nc3cc(OCC(F)(F)F)ccn3)c12 [Compound 129, 5-Methyl-2-(1-methyl-1H-imidazol-2-yl)-6-(1-methyl-1H-pyrazol-3-yl)-N-(4-(2,2,2-trifluoroethoxy)pyridin-2-yl)pyrrolo[2,1-f][1,2,4]triazin-4-amine]	< 150	26 to 49	B (B = 26-49% inhibition)	B (B = 26-49% inhibition)	B (B = 26-49% inhibition)	B (B = 26-49% inhibition)		
CO[C@H]1C[C@@H](Nc2nc(-c3nccn3C)nn3cc(-c4cccnc4)c(C)c23)C1 [Compound 153, N-((1s,3s)-3-methoxy-cyclobutyl)-5-methyl-2-(1-methyl-1H-imidazol-2-yl)-6-(pyridin-3-yl)pyrrolo[2,1-f][1,2,4]triazin-4-amine]	> 1000	50 to 75	B (B = 26-49% inhibition)	B (B = 26-49% inhibition)	C (C = 50-75% inhibition)	C (C = 50-75% inhibition)		
Cc1c(-c2ccn(C3CC3)n2)cn2nc(-c3nccn3C)nc(Nc3cc(N(C)C)ccn3)c12 [Compound 145, N^2-(6-(1-Cyclopropyl-1H-pyrazol-3-yl)-5-methyl-2-(1-methyl-1H-imidazol-2-yl)pyrrolo[2,1-f][1,2,4]triazin-4-yl)-N^4,N^4-dimethylpyridine-2,4-diamine]	< 150	76 to 100	D (D = 76-100% inhibition)	D (D = 76-100% inhibition)	D (D = 76-100% inhibition)	D (D = 76-100% inhibition)		
CO[C@@H]1CC[C@@H](Nc2nc(-c3nccn3C)nn3cc(-c4cccnc4)c(C)c23)C1 (racemic) [Compound 154, rac N-((1R,3R)-3-methoxy-cyclopentyl)-5-methyl-2-(1-methyl-1H-imidazol-2-yl)-6-(pyridin-3-yl)pyrrolo[2,1-f][1,2,4]triazin-4-amine]	> 1000	50 to 75	B (B = 26-49% inhibition)	B (B = 26-49% inhibition)	D (D = 76-100% inhibition)	D (D = 76-100% inhibition)		
COc1ccnc(Nc2nc(-c3nccn3C)nn3cc(-c4ccn(C5CC5)n4)c(C)c23)c1 [Compound 137, 6-(1-Cyclopropyl-1H-pyrazol-3-yl)-N-(4-methoxypyridin-2-yl)-5-methyl-2-(1-methyl-1H-imidazol-2-yl)pyrrolo[2,1-f][1,2,4]triazin-4-amine]	< 150	50 to 75	B (B = 26-49% inhibition)	C (C = 50-75% inhibition)	B (B = 26-49% inhibition)	C (C = 50-75% inhibition)		
Cc1c(-c2ccn(C(C)C)n2)cn2nc(-c3nccn3C)nc(Nc3cc(OCCO)ncn3)c12 [Compound 97, 2-((6-((6-(1-Isopropyl-1H-pyrazol-3-yl)-5-methyl-2-(1-methyl-1H-imidazol-2-yl)pyrrolo[2,1-f][1,2,4]triazin-4-yl)amino)pyrimidin-4-yl)oxy) ethan-1-ol]	< 150	76 to 100	D (D = 76-100% inhibition)	D (D = 76-100% inhibition)	D (D = 76-100% inhibition)	D (D = 76-100% inhibition)		
Cc1c(-c2ccn(C(C)C)n2)cn2nc(-c3nccn3C)nc(Nc3cc(OCCN(C)C)ncn3)c12 [Compound 123, N-(6-(2-(Dimethylamino)ethoxy)pyrimidin-4-yl)-6-(1-isopropyl-1H-pyrazol-3-yl)-5-methyl-2-(1-methyl-1H-imidazol-2-yl)pyrrolo[2,1-f][1,2,4]triazin-4-amine]	< 150	76 to 100	D (D = 76-100% inhibition)	D (D = 76-100% inhibition)	D (D = 76-100% inhibition)	D (D = 76-100% inhibition)		
Cc1c(-c2ccn(C)n2)cn2nc(-c3nccn3C)nc(Nc3nccc(OCCN(C)C)n3)c12 [Compound 105, N-(4-(2-(Dimethylamino)ethoxy)pyrimidin-2-yl)-5-methyl-2-(1-methyl-1H-imidazol-2-yl)-6-(1-methyl-1H-pyrazol-3-yl)pyrrolo[2,1-f][1,2,4]triazin-4-amine]	510 to 1000	76 to 100	D (D = 76-100% inhibition)	C (C = 50-75% inhibition)	D (D = 76-100% inhibition)	D (D = 76-100% inhibition)		

Source: US12459951B2, “Compounds that interact with RAS superfamily proteins for treatment of cancers, inflammatory diseases, rasopathies, and fibrotic disease” (SHY Therapeutics, LLC, priority 2022, dated 2025)
